Source: patent publication US20240300882A1, “CRYSTALLINE FORMS OF A DIFFUSION ENHANCING COMPOUND” (DIFFUSION PHARMACEUTICALS LLC, priority 2021, published 2024)

Legend:
Format in all cases: physicochemical
[1] = XRPD under a nitrogen stream of variable relative humidity
Description: Form H from Example 25 is measured under different relative humidities. The humidity measurements are made on a powder diffractometer X'Pert, PANalytical (G.16.SYS.S006) using CuKα radiation. Measuring conditions: tube power 40 kV/40 mA, scan range 1°-50° (2θ), step size 0.02°, time per step 2.4 seconds. The sample is measured in a 0.4 mm deep sample holder in a closed chamber under a stream of nitrogen of variable relative humidity (RH). The humidity of the nitrogen stream is controlled by varying the relative amount of humid and dry nitrogen gas. The sample is first conditioned one hour with a dry nitrogen stream and then a first XPRD is taken. The humidity of the gas stream is then changed to 50% RH and the sample is conditioned three hours to the new RH prior to a second XRPD measurement. After 10 more hours with 50% RH, a third XRPD is taken.

[2] = Equilibrium solubility shake-flask method, 24-hour slurry, XRPD result; conditions: water and ethanol
Description: Solubility is evaluated using shake-flask method at room temperature. Individual samples are prepared as follows: Approximately 20 mg of TSC Forms A, F, and J are placed in a 1-dram glass vial. To each vial is added 1.5 mL of media. The vials are then placed in an incubation chamber at room temperature with shaking at 150 rpm. After 24 hours the vials are removed and each slurry is vacuum filtered. The mother liquor is diluted 1:10 with the respective media for that sample and analyzed by HPLC. Water used is HPLC grade. Ethanol used in absolute, HPLC grade.

[3] = Dynamic vapor sorption (DVS) analysis; conditions: for Form by XRPD after DVS analysis: exposed up to 95% RH and down to 5% RH
Description: DVS analysis is carried out using a TA Instruments Q5000 Dynamic Vapor Sorption analyzer. The instrument is calibrated with standard weights and a sodium bromide standard for humidity. Approximately 10-25 mg (e.g., 20 mg) or 5-15 mg of sample is loaded into a metal-coated quartz pan for analysis. The sample is analyzed at 25° C. with a maximum equilibration time of one hour in 10% relative humidity (RH) steps from 5 to 95% RH (adsorption cycle) and from 95 to 5% RH (desorption cycle). The movement from one step to the next occurred either after satisfying the equilibrium criterion of 0.01% weight change or, if the equilibrium criterion is not met, after one hour. The percent weight change values are calculated using Microsoft Excel®. The temperature for the DVS analysis may impact the outcome of the results.

[4] = Physical stability of Crystalline Form F under slurry conditions, XRPD; conditions: anhydrous ethanol and ethanol with 1 and 5% water, ambient temperature, up to 4 days
Description: The physical stability of Crystalline Form F is evaluated when it is slurried in three solvent systems (anhydrous ethanol and ethanol containing both 1 and 5% water by volume) at ambient temperature.
To a 1-dram glass vial is added approximately 20 mg of TSC Crystalline Form F and 1 mL of a given solvent. The slurry is stirred at room temperature for a given amount of time. The vial is then centrifuged, the mother liquor decanted, and the wet solid is analyzed by XRPD.

[5] = Solid-state stability in relative humidity jars, analysed by XRPD; conditions: up to 4 weeks at 25° C./60% RH and 40° C./75% RH
Description: The solid-state stability of TSC Crystalline Forms A and F are evaluated at 25° C./60% relative humidity (RH) and 40° C./75% RH.
To a 1-dram glass vial is added approximately 20 mg of TSC Crystalline Form A or F. The open vials are placed in relative humidity (RH) jars. The RH in each jar is controlled by a saturated salt solution (sodium bromide for 60% RH and sodium chloride for 75% RH). The RH jars are purged with nitrogen and sealed. The sealed RH jars are placed in ovens set at the appropriate temperatures. The materials are analyzed at given time points by XRPD.

[6] = Heating to 100° C. in a TG furnace, then XRPD; conditions: Heat to 100° C., hold 1 minute
Description: Crystalline Forms A and B are heated to 100° C. in a TG furnace, held at that temperature for 1 minute, and immediately analyzed by XRPD.

[7] = Competitive slurry experiments, wet solid analysed by XRPD
Description: Sample preparation is carried out in a nitrogen glove box. Saturated solutions of TSC from Example 2 are prepared at a given temperature. The volume of each solution is about 1.5 mL and it is deemed saturated if excess solid remains after stirring for 2 hours. The sample is then centrifuged and the mother liquor is transferred to a vial containing equal amounts of each polymorph, about 10 mg each. The vials are capped and sealed with parafilm, and the slurries are then stirred magnetically at a given temperature for 5 days. Each sample is then centrifuged, the mother liquor decanted, and the wet solid immediately analyzed by XRPD.
Competitive slurry experiments involving Crystalline Forms A through E are carried out at three different temperatures using three different solvent systems (Table 2). […] At 50° C., the slurries in 1:1 acetone:water and 1:1 acetonitrile:water produce a mixture of Crystalline Forms A and B and Crystalline Form A, respectively. Although both solvent systems contain significant amounts of water, the slurries are carried out at a temperature at which Crystalline Form B is known to lose volatiles. […] That is probably the reason that Crystalline Form A results from the higher-temperature slurries in water-containing solvents.
Additional competitive slurry experiments are carried out between Crystalline Forms A, B, and F (Table 3). The data are consistent with the results in Example 10. […] The elevated temperature aqueous slurry data is also consistent with Example 10. Crystalline Form A is observed in aqueous media at 50° C. In the case of the 1:1 ethanol:water slurry, the XRPD pattern of the resulting material matches that of Crystalline Form A but contains several unidentified peaks.

With `CC(/C=C/C=C(\C)C(=O)[O-])=C\C=C\C=C(C)\C=C\C=C(/C)C(=O)[O-].[Na+].[Na+]` [Form H, trans sodium crocetinate] the “Form on exposure to different relative humidities” value [1] was “changes form”, the “Form by XRPD after humidity exposure” value ([1]; 0% RH, dry nitrogen stream, one hour) was “Form G” and the “Form by XRPD after humidity exposure” value ([1]; 50% RH, 10 more hours (third XRPD)) was “no difference between the second and third XRPDs”. The “Form by XRPD after humidity exposure” value ([1]; 50% RH, three hours) was “Form E”.

For “trans sodium crocetinate [Crystalline Form F]”, the “Form after 24-hour slurry experiments” value [2] was “remain unchanged”, the “Form by XRPD after DVS analysis” value [3] was “remains unchanged” and the “Physical stability of the form when slurried” value [4] was “remains unchanged”. For the same compound, the “Solid-state stability of the form” value [5] was “remain unchanged”.

With “trans sodium crocetinate [Crystalline Form A]” the “Form after 24-hour slurry experiments” value [2] was “remain unchanged”, the maximum water absorption ([3]; DVS, 25° C., 5 to 95% RH) was “about 2.5%” and the “Form by XRPD after DVS analysis” value [3] was “remains unchanged”. For the same compound, the “XRPD pattern after heating” value [6] was “remains unchanged”, the “Relative stability of the forms” value ([7]; between 2 and 50° C. in methanol) was “more stable than Forms B through E” and the “Relative stability of the forms” value ([7]; between 2 and 55° C. in absolute ethanol and absolute ethanol containing either 10% methanol or toluene) was “more stable than Forms B through F”. For the same compound, the “Relative stability of the forms” value ([7]; non-aqueous conditions) was “most stable form” and the “Solid-state stability of the form” value [5] was “remain unchanged”.

For “trans sodium crocetinate [Crystalline Form J]”, the “Form after 24-hour slurry experiments” value [2] was “exhibits form conversion”.

For `CC(/C=C/C=C(\C)C(=O)[O-])=C\C=C\C=C(C)\C=C\C=C(/C)C(=O)[O-].[Na+].[Na+]` [Example 20, trans sodium crocetinate], the “Form by XRPD after DVS analysis” value [3] was “remains unchanged”.

For `CC(/C=C/C=C(\C)C(=O)[O-])=C\C=C\C=C(C)\C=C\C=C(/C)C(=O)[O-].[Na+].[Na+]` [Crystalline Form B, trans sodium crocetinate], the “XRPD pattern after heating” value [6] was “converts to Crystalline Form F”, the “Relative stability of the forms” value ([7]; aqueous conditions) was “most stable form” and the “Relative stability of the forms” value ([7]; between 2 and 55° C. in 1:1 ethanol:water (v/v)) was “more stable than Forms A, C, D, E, and F”.
